Values of other authors, collected in PMC10687071 (The Journal of Biological Chemistry, 2023).

How the values were obtained:
[1] = test system: PAS domains of EAG channels; set-up: method as in PMID 31315662, PMID 32047112; conditions: cited from earlier work
[2] = test system: PAS domains of ERG3 channels; set-up: method as in PMID 32723862; conditions: cited from earlier work

| Compound | Binding to PAS domains of EAG channels [1] | Binding to PAS domains of ERG3 channels [2] |
| --- | --- | --- |
| C=CCCCCCCCCC(=O)O [undecylenic acid] | bind |  |
| C=CC1=C(C)c2cc3[n-]c(cc4[n-]c(cc5nc(cc1n2)C(C)=C5C=C)c(C)c4CCC(=O)O)c(CCC(=O)O)c3C.[Fe+2] [heme] |  | bind |
| CN(C)CCCN1c2ccccc2Sc2ccc(Cl)cc21 [chlorpromazine] | bind |  |
